How the values were obtained:
[1] = system: splenocytes of HHD DR3 mice expressing human HLA-A2 and HLA-DR3; assay: IFN-γ ELISpot immunogenicity and cross-reactivity in HHD DR3 mice (Examples 6, 10, 11); assay type: in vivo, mouse; settings: 100 μg s.c. days 0 and 14, helper peptide DR3 and IFA
Description: Concanavalin A (ConA) was used as a positive control.
The antigenic peptide of the invention BIRC5-B1 (SEQ ID NO: 289) and the corresponding human peptide BIRC5-H (SEQ ID NO: 286) were tested in distinct groups of male and female HHD DR3 mice expressing human HLA-A2 and HLA-DR3 MHC and lacking the murine H-2 class I and class II MHCs. Groups of 5 mice (male and female) were subcutaneously injected on days 0 and 14 with 100 μg of BIRC5-B1 or BIRC5-H, 150 μg of helper peptide (DR3) and IFA. On day 21, the mice were euthanized and splenocytes were prepared and stimulated in vitro with BIRC5-B1 or the human peptide BIRC5-H to assess their capacity to secrete IFN- as assessed by ELISpot. ConA was used as a positive control.
The antigenic peptide of the invention FOXM1-B2 (SEQ ID NO: 312) and the corresponding human peptide FOXM1-H2 (SEQ ID NO: 293) were tested in distinct groups of male and female HHD DR3 mice expressing human HLA-A2 and HLA-DR3 MHC and lacking the murine H-2 class I and class II MHCs. Groups of 5 mice (male and female) were subcutaneously injected on days 0 and 14 with 100 μg of FOXM1-B2 or FOXM1-H2, 150 μg of helper peptide (DR3) and IFA. On day 21, the mice were euthanized and splenocytes were prepared and stimulated in vitro with FOXM1-B2 or the human corresponding peptide FOXM1-H2 to assess their capacity to secrete IFN- as assessed by ELISpot. ConA was used as a positive control.

[2] = system: U87 cells (expressing IL13RA2); assay: In vitro cytotoxicity of T cells from immunized HHD mice against U87 cells (Example 4); assay type: cell-based; settings: CD3+ T cells of mice immunized with the peptide, 72 h co-culture with U87-MG
Description: Briefly, […] from mice immunized with IL13RA2-H or IL13RA2-B were used. These cells were obtained after sorting of splenocyte from immunized mice and were placed on top of U87 cells (expressing IL13RA2).
In more detail, CD3+ T cells were purified from splenocytes of HHD mice immunized with IL13RA2-H ([…], SEQ ID No 263) or IL13RA2-B ([…]). To this end, B6 β2m^ko HHD/DR3 mice were injected s.c. at tail base with 100 μL of an oil-based emulsion containing vaccination peptide plus helper peptide plus CFA (complete Freund's adjuvant), at day 0 and day 14. On d21, i.e. seven days after the boost injection, the animals were euthanized and the spleen was harvested. Splenocytes were prepared by mechanical disruption of the organ. CD3+ purification was performed using the mouse total T cells isolation kit from Miltenyi biotec using the recommended procedure. Efficient purification of cells and viability was validated by cytometry using appropriate marker for viability, CD8, CD4, CD3, and CD45. […]
72 hours after co-culture of U87-MG cells and CD3+ T cells, all cells from the wells were harvested and specific U87-MG cell death was evaluated after immunostaining of CD45 negative cells with DAPI and fluorescent annexin V followed by cytometry analysis.

WLPFGFILI [IL13RA2-H, reference compound]
Immunogenicity, IFN-γ ELISpot SFC (in words) [1]: does not induce an immune response
U87 cell lysis (in words) [2]: not

Reference: patent US20230105457A1, “Immunogenic Compounds For Treatment Of Adrenal Cancer” (ENTEROME S.A., priority 2019, published 2023)
